Series [1] has as its system SH-SY5Y cells. The series can be described thus: Cellular internalization of TAMRA-labeled peptides by flow cytometry. The series is classed as cell-based, human. The note with it: FBS-supplemented medium, n = 3. How it is done:
Figure 2 Cellular internalization of peptidic bioconjugates in SH-SY5Y neurons. Mean cell fluorescence intensity was measured by flow cytometry after continuous incubation with the fluorescent TAMRA-labeled bioconjugates in FBS-supplemented medium for increasing time periods. Values were normalized against the fluorescence background of untreated cells and expressed as fold increase. (a) Internalization kinetics of ANG-SI, ANG or SI at 1 μM (mean ± SD, n = 3). (b) Energy-dependence of the internalization of ANG-SI at 37 °C and 4 °C (mean ± SD, n = 3). ***P ≤ 0.001 and ****P ≤ 0.0001, unpaired Student’s t test. (c) Confocal images of cells incubated with ANG-SI, ANG or SI (red) for 1 h. Cells’ perimeter and nuclei have been delineated for reference. Scale bar 10 μm. […]
To study the uptake of the ANG conjugates, cells were incubated with the different fluorescently labeled peptides at 1 μM in FBS-supplemented medium for increasing periods of time, after which they were washed according to previously established protocols[50] and harvested with trypsin for their analysis by flow cytometry. The mean fluorescence values obtained from the analysis were normalized against the background fluorescence of untreated cells and were presented as fold-increase of this intensity. […]
In general terms: In flow cytometry, cells or beads pass a laser one at a time.

Series [2] deals with SH-SY5Y wild-type cells. The note with it: 30 min pre-treatment, 1 h incubation, flow cytometry, n = 3; for decrease of uptake on treatment with EIPA: 60 μM EIPA, 3 μM peptide or 0.75 mg/mL 70 kDa dextran; for decrease of uptake in the presence of Dynasore: 100 μM Dynasore, serum-free medium, 3 μM peptide or 5 μg/mL transferrin.
Protocol: Cell fluorescence distributions of cells treated with (a) 100 μM Dynasore or (b) 60 μM EIPA. […] Background cell fluorescence of only inhibitor-treated cells is shown (grey). Distributions shown are representative examples of three independent experiments. (c,d) Mean cell fluorescence intensity of the distributions shown in (a) or (b), respectively. The markers transferrin (Trf) and Dextran are shown for reference. (e) Frequency of cells in each of the two subpopulations (Negative or Positive) present upon treatment with ANG, as defined by the gates shown in the fluorescence distribution in (b). Numerical data are represented as mean ± SD (n = 3). *P ≤ 0.05 and **P ≤ 0.01, one-way ANOVA followed by Dunnet test.
For the pharmacological inhibition of endocytosis, we used Dynasore to inhibit clathrin-mediated endocytosis and 5-(N-Ethyl-N-isopropyl)amiloride (EIPA) to block macropinocytosis. […] To verify their inhibitory effects, we used fluorescently labeled human transferrin and 70 kDa dextran, respectively. […] Dynasore-treated cells were washed thrice with acidic wash buffer (0.2 M acetic acid and 0.2 M NaCl) and once with PBS prior to being harvested with trypsin for their analysis by flow cytometry. EIPA-treated cells were washed once with PBS, twice with acetate wash buffer (0.1 M sodium acetate and 0.05 M NaCl, pH 5.5) for 5 min each, and finally once more with PBS prior to being harvested with trypsin for their analysis by flow cytometry.
Series [3] addresses T1, BACE1 (Homo sapiens, UniProt P56817).
T1 construct: SH-SY5Y cells overexpressing either Swedish-mutant APP or the isoforms APP695 or APP751 were seeded in 24-well plates; endogenous in cells; host or cells: SH-SY5Y cells overexpressing Swedish-mutant APP (also APP695 or APP751 lines)
Kind of series: Activity test on human neurons: Aβ38, Aβ40, Aβ42 in supernatant by ELISA. It is filed as cell-based. The note with it: 6 h, swAPP SH-SY5Y cells. As for the experimental part:
Figure 5 BACE1-inhibitory activity of the bioconjugates. […] The content of Aβ peptides was measured in the cells’ supernatant upon treatment and normalized setting the values of control DMSO-treated cells as 100% (Mean ± SD, n = 3–6). […] GAPDH was used as loading control. (b) Inhibitory activity of the ANG-SI bioconjugate at a range of concentrations (5–100 μM) after 6 h incubation with swAPP cells (Mean ± SD, n = 3–6). *P ≤ 0.05, **P ≤ 0.01, ***P ≤ 0.001, ****P ≤ 0.0001, one-way ANOVA followed by Dunnet test.
Supernatant from the tissue culture plates was then collected in low protein-binding tubes and analyzed by enzyme-linked immunosorbent assay with the Multi-Spot Assay System from Meso Scale Discovery (Rockville, MD) detecting human Aβ38, Aβ40 and Aβ42 peptides (#K15200E,) following manual’s instructions. The values obtained for the different conjugates varied in intensity (Aβ42 ~70,000 RU, Aβ40 ~400,000 RU and Aβ38 ~4,000 RU) and were normalized for the basal Aβ level detected in the supernatant of DMSO-treated cells, which was set as 100%.

For series [4], the target named is T2, purified BACE1 enzyme (Homo sapiens, UniProt P56817).
T2 construct: purchased AnaSpec (Fremont, CA)
T2 sequence (P56817 46-501): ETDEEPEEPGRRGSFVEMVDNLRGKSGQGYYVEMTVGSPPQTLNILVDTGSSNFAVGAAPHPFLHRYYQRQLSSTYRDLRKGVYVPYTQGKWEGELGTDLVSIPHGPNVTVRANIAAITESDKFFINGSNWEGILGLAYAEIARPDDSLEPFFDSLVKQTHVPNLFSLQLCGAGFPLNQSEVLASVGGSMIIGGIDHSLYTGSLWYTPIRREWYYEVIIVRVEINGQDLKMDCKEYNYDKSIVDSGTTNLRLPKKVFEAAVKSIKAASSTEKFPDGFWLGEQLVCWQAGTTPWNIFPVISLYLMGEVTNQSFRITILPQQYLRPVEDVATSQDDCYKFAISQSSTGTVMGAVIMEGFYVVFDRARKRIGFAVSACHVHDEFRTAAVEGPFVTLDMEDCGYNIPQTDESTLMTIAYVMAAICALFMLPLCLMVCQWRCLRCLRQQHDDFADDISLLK
Kind of series: Activity test against purified BACE1 enzyme (cell-free, SensoLyte 520 β-secretase assay kit). The series is classed as biochemical. The note with it: cell-free assay of purified BACE1; mean of n = 3, except ANG-PEG-SI n = 2; CI 95% printed alongside; read-out: IC50 (concentration at which 50% of relative cleavage was achieved). How it is done:
Figure 1 Peptidic bioconjugates and their activity on purified BACE1 enzyme. (a) Scheme of the main bioconjugates used in this study with their corresponding sequences.
A range of concentrations of the different bioconjugates were tested in a cell-free assay of purified BACE1 enzyme using the SensoLyte 520 β–secretase assay kit from AnaSpec (Fremont, CA) following manufacturer’s guidelines.

Series [5] deals with wild type SH-SY5Y cells. It is filed as cell-based, human. The note with it: 5 μM, continuous exposure over 72 h, RTCA xCELLigence. How it is done: Figure S7 – Activity of the TAT-SI and TRP-SI bioconjugates on swAPP-overexpressing SH-SY5Y cells. […]
μM in FBS-supplemented medium. Mean ± SD (n=3). **P<0.01 and ****P<0.0001, one-way ANOVA followed […]
Figure S8 – Cytotoxicity of the peptides. Cell growth was monitored over 72 h using wild type SH-SY5Y cells during continuous exposure to the peptides at 5 μM using a Real-Time Cell Analysis (RTCA) xCELLigence system from Roche (Rotkreuz, Switzerland). Briefly, cells were seeded on the E-plates (10,000 cells/well) and after one day the medium was replaced by fresh medium containing the corresponding peptide and the cells were grown for 72 h. Cell growth was monitored with the RTCA system over 72 h during continuous exposure to the peptides at 5 μM. […]

Where a SMILES comes first, the peptide text is derived from it. [ ]: non-standard residue; d: D form. Sta = CC(C)C[C@H](N)[C@@H](O)CC(=O)O

We go through 6 molecules from paper PMC5041153, “Presumed LRP1-targeting transport peptide delivers β-secretase inhibitor to neurons in vitro with limited efficiency” (Scientific Reports, 2016).

T1 sequence (P56817 46-501): as above

As to “EVN-statine-VAEFTFFYGGSRGKRNNFKTEEY (N-terminal EVN-statine) [ANG-SI, SI coupled to the transport peptide ANG]”, in series [1] (TAMRA-labeled peptide, 1 μM, up to 5 h continuous incubation, 37 °C), the “internalization into cells (mean cell fluorescence intensity)” value was “taken up by cells”. In addition, the “internalization at 4 °C instead of 37 °C (energy dependence)” value in series [1] (TAMRA-labeled, 1 h pre-incubation at 4 °C) is “significantly decreased”. Moreover, in series [2], the “decrease of uptake on treatment with EIPA” value worked out at 50% and the “decrease of uptake in the presence of Dynasore” value is 20%. In addition, in series [3] (concentrations five times higher than 5 μM, n = 3–6), the “decrease in the enzymatic activity of BACE1” value is ~ 25%. In addition, the “decrease in the enzymatic activity of BACE1” value in series [3] (concentrations twenty times higher than 5 μM, n = 3–6) was ~ 60%.
For the molecule `C[C@@]1(c2cc(-c3cncnc3)c(F)cc2F)CCSC(N)=N1` [LY2811376, reference compound], the “decrease of the levels of Aβ peptides 38, 40 and 42 in supernatant” value in series [3] (5 μM, FBS-supplemented medium, normalized to DMSO-treated cells = 100%, n = 3–6) was above 90%.
For the molecule “transferrin: fluorescently labeled human transferrin, clathrin-mediated endocytosis marker [reference compound]”, the “decrease of uptake in the presence of Dynasore” value in series [2] is recorded as ~ 35%.
For the molecule “EVN-statine-VAEF-PEG-TFFYGGSRGKRNNFKTEEY [ANG-PEG-SI, ANG and SI joined by an inert poly(ethylene glycol) linker]”, the “effect on Aβ peptide levels (cellular activity)” value in series [3] (5 μM, FBS-supplemented medium, normalized to DMSO-treated cells) is reported as “did not show cellular activity”. Moreover, the IC50 in series [4] was determined as 87.1 nM.
On to `CC[C@H](C)[C@H](NC(=O)[C@H](CCCCN)NC(=O)[C@H](CCCCN)NC(=O)[C@H](C)NC(=O)[C@H](CC(C)C)NC(=O)[C@H](C)NC(=O)[C@H](C)NC(=O)[C@H](CC(C)C)NC(=O)[C@H](C)NC(=O)[C@H](CCCCN)NC(=O)[C@H](CC(C)C)NC(=O)[C@H](CC(N)=O)NC(=O)[C@@H](NC(=O)[C@H](CCCCN)NC(=O)CNC(=O)[C@H](CC(C)C)NC(=O)[C@H](CC(C)C)NC(=O)[C@H](Cc1ccc(O)cc1)NC(=O)CNC(=O)[C@H](C)NC(=O)[C@H](CO)NC(=O)[C@H](CC(N)=O)NC(=O)[C@H](CC(C)C)NC(=O)[C@@H](NC(=O)[C@H](Cc1c[nH]c2ccccc12)NC(=O)CNC(=O)[C@H](Cc1ccccc1)NC(=O)[C@H](CCC(=O)O)NC(=O)[C@H](C)NC(=O)[C@@H](NC(=O)C[C@H](O)[C@H](CC(C)C)NC(=O)[C@H](CC(N)=O)NC(=O)[C@@H](NC(=O)[C@@H](N)CCC(=O)O)C(C)C)C(C)C)[C@@H](C)O)[C@@H](C)CC)C(=O)N[C@@H](CC(C)C)C(=O)O` [TRP-SI] (H-EVN[Sta]VAEFGWTLNSAGYLLGKINLKALAALAKKIL-OH), for which, in series [5], the “cytotoxicity (cell growth)” value was “cytotoxic effect”.
For dextran [reference compound], the “decrease of uptake on treatment with EIPA” value in series [2] amounted to 50%.
